{
  "source": "patent US20260315605A1",
  "about": "“PROTACS FOR ASK1 PROTEIN DEGRADATION: PREPARATION AND USE THEREOF” (COUNCIL OF SCIENTIFIC AND INDUSTRIAL RESEARCH, priority 2023, published 2026)",
  "origin": "cited, not measured here",
  "key": {"[1]": {"tested_on": "NASH patients", "conditions": "Phase III, Harrison et al. 2020"}, "[2]": {"tested_on": "ASK1/MAPK pathway", "conditions": "Harrison et al. 2020"}},
  "data": [
    {"molecule": "Cc1cc(F)c(C(=O)Nc2cccc(-c3nncn3C(C)C)n2)cc1-n1cnc(C2CC2)c1", "note": "[selonsertib]", "values": [
      {"measurement": "clinical outcome, fibrosis improvement", "setting": "[1]", "value": "failed in Phase III clinical trial of fibrosis improvement in NASH patients"},
      {"measurement": "anti-fibrotic activity", "setting": "[2]", "value": "promising anti-fibrotic activity"}
    ]}
  ]
}
